Measured values taken from patent US20260048051A1, “TREATMENT OF INFLAMMATORY BOWEL DISEASE” (Atomwise Inc., priority 2024, published 2026).

Key:
TYK2-JH2 = biological target: T1, TYK2-JH2 (Homo sapiens, UniProt P29597); test: TYK2-JH2 HTRF binding assay (ligand efficiency); conditions: calculated from binding-assay IC50 (Equation 1)
T1 construct: TYK JH2 enzyme mix (ChemPartner: CP20210818A-BV); purchased ChemPartner CP20210818A-BV
Protocol: The following example describes the TYK2-JH2 HTRF binding assay used to determine the ligand efficiency of the TYK2 inhibitors.
To calculate ligand efficiency, Equation 1 is applied: […]
in which IC50 comes from the binding assay used to determine compound potency.
TYK JH2 enzyme mix (ChemPartner: CP20210818A-BV), tracer (ChemPartner: CP-0029472-051) and mAb Anti-6HIS Tb cryptate Gold (Cisbio: Cat No. 61HI2TLA) mix were prepared in assay buffer (10 mM MgCl2, 20 mM HEPES pH 7.5, 0.01% Triton X-100, 1 mM DTT). Compounds diluted in DMSO (Final Concentrations 0.1 to 0.000005 [μM]) and enzyme mix (0.5 nM Final Concentration) were added to 384 well plates, briefly centrifuged and incubated at room temperature for 10 minutes. After incubation, tracer mix (Tracer-35 nM final concentration); (MAb Anti-6HIS Tb cryptate Gold-0.5× final)) was added, briefly centrifuged then incubate at room temperature 60 minutes. After incubation, plates were read by Envision TR-FRET (Ex340/Em495/520) protocol (PerkinElmer-Envision 2104 multilabel plate reader).

IL-6 induced pSTAT3 = IL-6 induced pSTAT3 assay in TF-1 cells; assay type: cell-based; conditions: Homo sapiens, read-out: Cellular selectivity (IL-6/pSTAT3)
Protocol: The following example describes the IL-6 induced pSTAT3 assay used to determine the cellular selectivity (IL-6/pSTAT3) of the TYK2 inhibitors.
TF-1 (ATCC®, CRL-2003™) cells were cultured in RPMI 1640 Medium, with GlutaMAX™ Supplement, HEPES for Cell Culture (Life Technologies, 72400047), 10% Fetal Bovine Serum (Life Technologies, 26400044), 2 ng/mL human recombinant GM-CSF (Life Technologies, PHC2013), 1 mM Sodium pyruvate (Life Technologies, 11360039), 1% MEM NEAA (Life Technologies, 11140-035), 1% Penicillin/Streptomycin (Life Technologies, 15140-122).
TF-1 (70×10^6) cells were starved overnight in T150 flasks (Opti-MEM™ I Reduced Serum Medium, no phenol red (Life Technologies, 11058-021), 1 mM Na pyruvate (Life Technologies, 11360039), 1% MEM NEAA (Life Technologies, 11140-035), and 1% Penicillin/Streptomycin (Life Technologies, 15140-122)) then seeded into 96-well TPP plates (150 000 cell/well) and incubated with test compounds (Final Concentration [nM]10000-0.05) for 30 minutes at 37° C. […] Stimulation was terminated by addition of lysis buffer (MSD K150SVD) and pSTAT3 detection was measured with Phospho-STAT3 (Tyr705) Kit MSD K150SVD)) according to manufacturer's instruction. Briefly, cell lysates were added to pre-blocked plates, sealed, and shake for 1 hour at room temperature. Plates were then washed and incubated with detection antibody for 1 hour at room temperature. After washing, Read Buffer was added, and plates were read on MSD instrument (Model 1300 MSD Quickplex SQ120).

GM-CSF induced pSTAT5 = GM-CSF induced pSTAT5 assay in CellSensor irf1-bla TF-1 cells; assay type: cell-based; conditions: GM-CSF 1 ng/mL; for IC50: Homo sapiens, read-out: Cellular selectivity (GM-CSF induced pSTAT5)
Protocol: The CellSensor irfl-bla TF-1 cell line (LifeTechnologies, K1657) was cultured in RPMI 1640 Medium (Invitrogen 72400-047), 10% Fetal Bovine Serum (Invitrogen, 26400044), 1 mM Sodium pyruvate (Life Technologies, 11360039), 1% MEM NEAA (Life Technologies, 11140-035), 2 ng/ml of human recombinant GM-CSF (Fisher, PHC2015), 1% Penicillin/Streptomycin (Life Technologies, 15140-122) and 5 µg/ml of Blasticidin (ThermoFisher, A1113903).
The cell line was seeded in a T75 flask at 13×10^6 cells/50 mL in starvation medium (Opti-MEM™ I Reduced Serum Medium, no phenol red (Life Technologies, 11058-021), 1 mM Na pyruvate (Life Technologies, 11360039), 1% MEM NEAA (Life Technologies, 11140-035), and 1% Penicillin/Streptomycin (Life Technologies, 15140-122)) for 16 hours at 37° C. under 5% CO2 the day before the assay.
For the assay, CellSensor irfl-bla TF-1 cells were seeded at 30 000 cells/32 μL (starvation medium)/well in a 384-well plate.
Compounds were added on the cells in 4 μL (starvation medium)/well at 10× the final concentration. They were incubated for 30 minutes at 37° C.
Human recombinant carrier-free GM-CSF (ThermoFisher, ref PHC2015) was added to the wells in 4 μL (starvation medium)/well at 10×. The final concentration was 1 ng/mL. Control wells without GM-CSF treatment were added. Plates were incubated for 5 hours at 37° C.
6× LiveBlazer-FRET substrate (Invitrogen, K1085) was added to the wells at 8 μL/well. The substrate was prepared shortly before use by mixing 6 μL of solution A and 60 μL of solution B to 934 μL of solution C. Plates were incubated for 2.5 hours at room temperature in the dark. The plates were read on an Envision (Perkin Elmer) with an excitation at a wavelength of 409 nm and two wavelengths for the emission 520 nm and 450 nm. The ratio between the […] emission was used to calculate the IC50s.
The IC50 for the inhibition of pSTAT5 was calculated with the XLfit software using the 4 Parameter Logistic Model or Sigmoidal Dose-Response Model (model 205).

[1] = Mouse plasma pharmacokinetics, PO 5 mg/kg; assay type: in vivo
Protocol: The following example describes the methods used to evaluate the pharmacokinetics of TYK2 inhibitors in vivo following dosing of a compound of the invention.
The pharmacokinetics of test compounds were evaluated in either male CD-1 mice or male C57BL/6 mice when administered by oral gavage and IV bolus injection. The animals were allowed free access to food and water before administration. The plasma samples were analyzed by LC-MS/MS and the concentration of test compound at each time point was determined by linear regression. Pharmacokinetic parameters were calculated from the plasma concentrations by non-compartmental modeling using WinNonlin 8.2.
Oral composition. To prepare a pharmaceutical composition for oral delivery, the test articles described herein were dissolved in DMSO and then mixed with necessary volume of PEG400 followed by […] in water or 50% Kolliphor HS 15 in saline to provide the final concentrations of 0.5 mg/mL or 1 mg/mL (Table 8). The resultant mixtures were suitable for oral administration.
The PK parameters measured in mouse plasma after treatment with TYK2 inhibitor compounds via PO (oral administration) at 5 mg/kg are summarized below in Tables 9-11.

T1 sequence (P29597 589-875 limits assumed): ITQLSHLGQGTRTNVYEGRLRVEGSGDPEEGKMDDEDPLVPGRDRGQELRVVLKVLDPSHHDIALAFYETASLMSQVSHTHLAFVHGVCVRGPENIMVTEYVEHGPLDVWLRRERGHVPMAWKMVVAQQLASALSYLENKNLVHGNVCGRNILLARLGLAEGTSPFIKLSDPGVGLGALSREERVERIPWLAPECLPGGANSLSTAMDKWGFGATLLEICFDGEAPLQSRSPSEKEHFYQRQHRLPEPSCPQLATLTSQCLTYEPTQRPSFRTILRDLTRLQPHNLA

Row | Compound | Ligand Efficiency (TYK2-JH2) | further results
1 | CS(=O)(=O)c1cccnc1Nc1cc(Nc2ccc3c(n2)CCCC3N2CC3(COC3)C2)ncn1 (stereo in doubt) [Compound 5, (R)—N^4-(5-(2-oxa-6-azaspiro[3.3]heptan-6-yl)-5,6,7,8-tetrahydroquinolin-2-yl)-N^6-(3-(methylsulfonyl)pyridin-2-yl)pyrimidine-4,6-diamine] | †† (††: 0.37-0.39) | IC50 (IL-6 induced pSTAT3): 4 to 10 µM; IC50 (GM-CSF induced pSTAT5): > 10 µM; Half-life (t1/2) [1]: ††† (†††: >1.5); Maximum plasma concentration (Cmax) [1]: ††† (†††: >1500); Total systemic exposure (AUCinf) [1]: ††† (†††: >2000)
2 | CC(c1ccc(Nc2cc(Nc3ncccc3S(C)(=O)=O)ncn2)nc1C(F)(F)F)N1CC2(COC2)C1 (stereo in doubt) [Compound 11, (R)—N^4-(5-(1-(2-oxa-6-azaspiro[3.3]heptan-6-yl)ethyl)-6-(trifluoromethyl)pyridin-2-yl)-N^6-(3-(methylsulfonyl)pyridin-2-yl)pyrimidine-4,6-diamine] | †† (††: 0.37-0.39) | IC50 (IL-6 induced pSTAT3): < 4 µM; IC50 (GM-CSF induced pSTAT5): > 10 µM; Half-life (t1/2) [1]: ††† (†††: >1.5); Maximum plasma concentration (Cmax) [1]: †† (††: 800-1500); Total systemic exposure (AUCinf) [1]: ††† (†††: >2000)
3 | C[C@H](c1ccc(Nc2cc(Nc3ncccc3S(C)(=O)=O)ncn2)nc1)N1CC2(COC2)C1 [Compound 17, (R)—N^4-(5-(1-(2-oxa-6-azaspiro[3.3]heptan-6-yl)ethyl)pyridin-2-yl)-N^6-(3-(methylsulfonyl)pyridin-2-yl)pyrimidine-4,6-diamine] | †† (††: 0.37-0.39) | IC50 (IL-6 induced pSTAT3): > 10 µM; Cellular selectivity (GM-CSF induced pSTAT5) (GM-CSF induced pSTAT5): ††††
4 | COc1ccc(Nc2cc(NC(=O)C3CC3)ncn2)c(C(N)=O)c1 [Compound 70, 2-((6-(cyclopropanecarboxamido)pyrimidin-4-yl)amino)-5-methoxy benzamide] | ††† (†††: >0.39) | –
5 | Cc1cccc(Nc2cc(Nc3ncccc3CS(C)(=O)=O)ncn2)n1 [Compound 71, N^4-(6-methylpyridin-2-yl)-N^6-(3-((methylsulfonyl)methyl)pyridin-2-yl)pyrimidine-4,6-diamine] | ††† (†††: >0.39) | –
6 | Cn1cc(-c2ccnc(Nc3cc(Nc4ccc(NC5(C)COC5)cn4)ncn3)c2S(C)(=O)=O)cn1 [Compound 72, N^4-(4-(1-methyl-1H-pyrazol-4-yl)-3-(methylsulfonyl)pyridin-2-yl)-N^6-(5-(3-methyloxetan-3-ylamino)pyridin-2-yl)pyrimidine-4,6-diamine] | † (†: < 0.37) | –
7 | CC1(Nc2ccc(Nc3cc(Nc4ncccc4S(C)(=N)=O)ncn3)nc2)COC1 (centres unmarked) [Compound 73, N^4-(5-((3-methyloxetan-3-yl)amino)pyridin-2-yl)-N^6-(3-(S-methylsulfonimidoyl)pyridin-2-yl)pyrimidine-4,6-diamine] | ††† (†††: >0.39) | –
8 | CC1(Nc2cnc(Nc3cc(Nc4ncccc4S(C)(=O)=O)ncn3)cn2)COC1 [Compound 74, N^4-(5-(3-methyloxetan-3-ylamino)pyrazin-2-yl)-N^6-(3-(methylsulfonyl)pyridin-2-yl)pyrimidine-4,6-diamine] | ††† (†††: >0.39) | –
9 | CC(c1ccc(Nc2ncnc(Nc3ncccc3S(C)(=O)=O)c2F)nc1)N1CC2(COC2)C1 (centres unmarked) [Compound 75, N^4-(5-(1-(2-oxa-6-azaspiro[3.3]heptan-6-yl)ethyl)pyridin-2-yl)-5-fluoro-N^6-(3-(methylsulfonyl)pyridin-2-yl)pyrimidine-4,6-diamine] | † (†: < 0.37) | –
10 | COc1ccnc(Nc2cc(Nc3ccc(C(C)N4CC5(COC5)C4)cn3)ncn2)c1S(C)(=O)=O (centres unmarked) [Compound 76, N^4-(5-(1-(2-oxa-6-azaspiro[3.3]heptan-6-yl)ethyl)pyridin-2-yl)-N^6-(4-methoxy-3-(methylsulfonyl)pyridin-2-yl)pyrimidine-4,6-diamine] | † (†: < 0.37) | –
11 | Cc1cc(Nc2cc(Nc3ncccc3S(C)(=O)=O)ncn2)nnc1C(C)N1CC2(COC2)C1 (centres unmarked) [Compound 77, N^4-(6-(1-(2-oxa-6-azaspiro[3.3]heptan-6-yl)ethyl)-5-methylpyridazin-3-yl)-N^6-(3-(methylsulfonyl)pyridin-2-yl)pyrimidine-4,6-diamine] | †† (††: 0.37-0.39) | –
12 | CC(c1ccc(Nc2cc(Nc3ncc(C4COC4)cc3S(C)(=O)=O)ncn2)nc1)N1CC2(COC2)C1 (centres unmarked) [Compound 78, N^4-(5-(1-(2-oxa-6-azaspiro[3.3]heptan-6-yl)ethyl)pyridin-2-yl)-N^6-(3-(methylsulfonyl)-5-(oxetan-3-yl)pyridin-2-yl)pyrimidine-4,6-diamine] | † (†: < 0.37) | –
13 | CS(=O)(=O)c1ccccc1Nc1cc(Nc2ccc(C(=O)NC3COC3)cn2)ncn1 [Compound 79, 6-((6-((2-(methylsulfonyl)phenyl)amino)pyrimidin-4-yl)amino)-N-(oxetan-3-yl)nicotinamide] | †† (††: 0.37-0.39) | –
14 | CS(=O)(=O)c1ccccc1Nc1cc(Nc2ccc(NC3COC3)cn2)ncn1 [Compound 80, N^4-(2-(methylsulfonyl)phenyl)-N^6-(5-(oxetan-3-ylamino)pyridin-2-yl) pyrimidine-4,6-diamine] | † (†: < 0.37) | –
